The kinase profiling compilation of Christmann-Franck et al. (2016)
Blank lines part the entries; values can stand above or below the compound they belong to.

How the values were obtained:
Assay in all cases: radiometric filter-binding kinase assay
MAPK11 (human) = MAPK11 (human) (UniProt Q15759)
INSR (human) = INSR (human) (UniProt P06213)
PRKAA1 or PRKAA2 (rat) = details: accession and sequence are those of the human protein
MAPK1 (human) = MAPK1 (human) (UniProt P28482)
PRKCZ (human) = PRKCZ (human) (UniProt Q05513)
GSK3B (human) = GSK3B (human) (UniProt P49841)
GSK3B (human), sequence (P49841 whole entry, looked up): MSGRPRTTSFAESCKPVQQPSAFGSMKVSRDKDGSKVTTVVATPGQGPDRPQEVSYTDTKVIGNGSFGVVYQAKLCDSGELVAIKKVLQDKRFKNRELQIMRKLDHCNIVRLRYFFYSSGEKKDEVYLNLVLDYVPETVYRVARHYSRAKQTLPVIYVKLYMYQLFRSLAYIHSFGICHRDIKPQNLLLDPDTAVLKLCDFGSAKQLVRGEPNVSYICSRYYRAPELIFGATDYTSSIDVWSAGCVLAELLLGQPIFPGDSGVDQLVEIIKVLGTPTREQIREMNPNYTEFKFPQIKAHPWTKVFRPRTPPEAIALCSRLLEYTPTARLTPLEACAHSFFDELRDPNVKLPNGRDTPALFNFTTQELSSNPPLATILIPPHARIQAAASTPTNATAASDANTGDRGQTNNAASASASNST

PAK7 (human) = PAK7 (human) (UniProt Q9P286)
PAK7 (human), sequence (Q9P286 whole entry, looked up): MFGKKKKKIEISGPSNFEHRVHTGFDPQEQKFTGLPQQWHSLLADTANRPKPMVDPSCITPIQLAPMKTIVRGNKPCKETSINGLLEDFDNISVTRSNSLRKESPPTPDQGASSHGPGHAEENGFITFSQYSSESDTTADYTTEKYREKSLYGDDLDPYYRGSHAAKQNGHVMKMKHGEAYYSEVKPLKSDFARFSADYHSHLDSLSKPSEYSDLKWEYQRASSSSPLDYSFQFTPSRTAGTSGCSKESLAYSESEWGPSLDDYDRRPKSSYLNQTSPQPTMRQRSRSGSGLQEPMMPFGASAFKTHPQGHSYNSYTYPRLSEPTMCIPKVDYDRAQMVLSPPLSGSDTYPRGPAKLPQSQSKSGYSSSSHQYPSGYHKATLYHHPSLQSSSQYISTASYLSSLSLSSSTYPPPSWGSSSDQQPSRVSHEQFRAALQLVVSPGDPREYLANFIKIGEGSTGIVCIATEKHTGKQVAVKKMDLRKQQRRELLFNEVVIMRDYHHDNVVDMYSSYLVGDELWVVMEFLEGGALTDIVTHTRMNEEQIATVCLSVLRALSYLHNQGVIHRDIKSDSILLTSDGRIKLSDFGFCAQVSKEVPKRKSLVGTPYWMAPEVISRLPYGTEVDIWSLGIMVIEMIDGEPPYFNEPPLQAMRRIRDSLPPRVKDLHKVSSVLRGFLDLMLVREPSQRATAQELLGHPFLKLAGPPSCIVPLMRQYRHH

BRSK2 (human) = BRSK2 (human) (UniProt Q8IWQ3)
MAPK13 (human) = MAPK13 (human) (UniProt O15264)
CSK (human) = CSK (human) (UniProt P41240)
PAK6 (human) = PAK6 (human) (UniProt Q9NQU5)
PAK6 (human), sequence (Q9NQU5 whole entry, looked up): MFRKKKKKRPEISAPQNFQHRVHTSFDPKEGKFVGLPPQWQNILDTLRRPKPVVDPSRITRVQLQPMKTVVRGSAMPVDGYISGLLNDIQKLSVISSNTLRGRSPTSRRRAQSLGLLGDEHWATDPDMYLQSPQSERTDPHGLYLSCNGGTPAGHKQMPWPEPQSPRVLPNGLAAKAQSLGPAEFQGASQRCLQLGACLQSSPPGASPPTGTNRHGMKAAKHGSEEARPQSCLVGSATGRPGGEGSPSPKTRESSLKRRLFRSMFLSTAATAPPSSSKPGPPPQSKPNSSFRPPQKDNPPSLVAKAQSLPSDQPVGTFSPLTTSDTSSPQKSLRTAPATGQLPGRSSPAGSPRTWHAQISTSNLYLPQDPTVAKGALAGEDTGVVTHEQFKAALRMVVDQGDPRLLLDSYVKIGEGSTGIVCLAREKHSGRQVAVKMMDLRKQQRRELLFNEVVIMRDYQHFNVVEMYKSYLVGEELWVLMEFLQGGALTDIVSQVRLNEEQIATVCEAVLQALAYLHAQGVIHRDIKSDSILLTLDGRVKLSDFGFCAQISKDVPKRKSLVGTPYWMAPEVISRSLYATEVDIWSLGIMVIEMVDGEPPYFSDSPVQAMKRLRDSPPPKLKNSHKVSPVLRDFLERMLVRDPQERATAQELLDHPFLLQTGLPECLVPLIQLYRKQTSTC

SRC (human) = SRC (human) (UniProt P12931)
EPHB3 (human) = EPHB3 (human) (UniProt P54753)
RPS6KA5 KD1 KD2 (human) = RPS6KA5 KD1 KD2 (human) (UniProt O75582)
IGF1R (human) = IGF1R (human) (UniProt P08069)
ROCK2 (rat) = details: accession and sequence are those of the human protein
HIPK2 (human) = HIPK2 (human) (UniProt Q9H2X6)
PKN2 (human) = PKN2 (human) (UniProt Q16513)
YES1 (human) = YES1 (human) (UniProt P07947)
YES1 (human), sequence (P07947 whole entry, looked up): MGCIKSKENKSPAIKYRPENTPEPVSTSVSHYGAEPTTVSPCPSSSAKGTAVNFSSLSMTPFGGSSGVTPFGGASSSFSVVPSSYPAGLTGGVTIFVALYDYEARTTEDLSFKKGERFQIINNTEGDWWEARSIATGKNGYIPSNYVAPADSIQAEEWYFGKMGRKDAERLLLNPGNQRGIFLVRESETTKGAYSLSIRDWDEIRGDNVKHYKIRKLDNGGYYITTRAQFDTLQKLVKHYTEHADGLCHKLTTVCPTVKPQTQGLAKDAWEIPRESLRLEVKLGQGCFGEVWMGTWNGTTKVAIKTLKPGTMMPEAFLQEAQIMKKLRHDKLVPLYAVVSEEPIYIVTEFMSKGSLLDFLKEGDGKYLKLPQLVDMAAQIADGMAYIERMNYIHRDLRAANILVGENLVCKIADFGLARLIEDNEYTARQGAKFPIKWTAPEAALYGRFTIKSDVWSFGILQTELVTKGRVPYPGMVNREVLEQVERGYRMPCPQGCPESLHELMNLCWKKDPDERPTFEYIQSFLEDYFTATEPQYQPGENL

LCK (mouse) = details: accession and sequence are those of the human protein
[1] = test system: AKT2 (human), P31751 [S474D]
PLK1 (human) = PLK1 (human) (UniProt P53350)
PLK1 (human), sequence (P53350 whole entry, looked up): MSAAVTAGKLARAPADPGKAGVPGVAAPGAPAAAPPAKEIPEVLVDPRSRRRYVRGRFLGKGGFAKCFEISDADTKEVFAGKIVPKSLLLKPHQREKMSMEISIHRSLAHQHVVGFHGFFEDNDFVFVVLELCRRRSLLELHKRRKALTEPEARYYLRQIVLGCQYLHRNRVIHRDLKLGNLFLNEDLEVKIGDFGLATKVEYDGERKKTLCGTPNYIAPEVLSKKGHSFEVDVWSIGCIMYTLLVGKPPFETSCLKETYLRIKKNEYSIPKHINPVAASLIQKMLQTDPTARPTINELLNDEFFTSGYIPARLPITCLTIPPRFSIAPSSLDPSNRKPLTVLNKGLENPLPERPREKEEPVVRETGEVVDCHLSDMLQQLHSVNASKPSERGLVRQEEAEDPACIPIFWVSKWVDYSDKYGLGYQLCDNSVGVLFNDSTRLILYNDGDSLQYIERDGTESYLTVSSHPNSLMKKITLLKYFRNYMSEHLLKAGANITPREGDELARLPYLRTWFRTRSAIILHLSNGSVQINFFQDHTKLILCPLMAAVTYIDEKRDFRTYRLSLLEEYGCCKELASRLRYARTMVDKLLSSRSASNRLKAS

CAMKK2 (human) = CAMKK2 (human) (UniProt Q96RR4)
CAMKK2 (human), sequence (Q96RR4 whole entry, looked up): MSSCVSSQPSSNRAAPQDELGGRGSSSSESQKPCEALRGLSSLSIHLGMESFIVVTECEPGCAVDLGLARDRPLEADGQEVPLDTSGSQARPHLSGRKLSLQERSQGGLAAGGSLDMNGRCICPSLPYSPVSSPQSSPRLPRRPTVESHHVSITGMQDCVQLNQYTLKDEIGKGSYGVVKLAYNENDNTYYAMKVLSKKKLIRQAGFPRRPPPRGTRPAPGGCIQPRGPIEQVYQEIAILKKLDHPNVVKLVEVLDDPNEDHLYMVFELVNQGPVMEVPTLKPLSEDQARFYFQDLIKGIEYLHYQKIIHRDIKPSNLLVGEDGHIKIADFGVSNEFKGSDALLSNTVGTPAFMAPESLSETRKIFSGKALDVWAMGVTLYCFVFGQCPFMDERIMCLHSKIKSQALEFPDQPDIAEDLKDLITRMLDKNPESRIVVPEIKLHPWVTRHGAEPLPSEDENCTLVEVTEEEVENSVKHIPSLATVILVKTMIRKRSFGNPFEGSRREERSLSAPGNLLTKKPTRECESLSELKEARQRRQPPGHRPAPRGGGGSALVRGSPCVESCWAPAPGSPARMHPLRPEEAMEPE

SYK (human) = SYK (human) (UniProt P43405)

INSR (human), sequence (P06213 whole entry, looked up): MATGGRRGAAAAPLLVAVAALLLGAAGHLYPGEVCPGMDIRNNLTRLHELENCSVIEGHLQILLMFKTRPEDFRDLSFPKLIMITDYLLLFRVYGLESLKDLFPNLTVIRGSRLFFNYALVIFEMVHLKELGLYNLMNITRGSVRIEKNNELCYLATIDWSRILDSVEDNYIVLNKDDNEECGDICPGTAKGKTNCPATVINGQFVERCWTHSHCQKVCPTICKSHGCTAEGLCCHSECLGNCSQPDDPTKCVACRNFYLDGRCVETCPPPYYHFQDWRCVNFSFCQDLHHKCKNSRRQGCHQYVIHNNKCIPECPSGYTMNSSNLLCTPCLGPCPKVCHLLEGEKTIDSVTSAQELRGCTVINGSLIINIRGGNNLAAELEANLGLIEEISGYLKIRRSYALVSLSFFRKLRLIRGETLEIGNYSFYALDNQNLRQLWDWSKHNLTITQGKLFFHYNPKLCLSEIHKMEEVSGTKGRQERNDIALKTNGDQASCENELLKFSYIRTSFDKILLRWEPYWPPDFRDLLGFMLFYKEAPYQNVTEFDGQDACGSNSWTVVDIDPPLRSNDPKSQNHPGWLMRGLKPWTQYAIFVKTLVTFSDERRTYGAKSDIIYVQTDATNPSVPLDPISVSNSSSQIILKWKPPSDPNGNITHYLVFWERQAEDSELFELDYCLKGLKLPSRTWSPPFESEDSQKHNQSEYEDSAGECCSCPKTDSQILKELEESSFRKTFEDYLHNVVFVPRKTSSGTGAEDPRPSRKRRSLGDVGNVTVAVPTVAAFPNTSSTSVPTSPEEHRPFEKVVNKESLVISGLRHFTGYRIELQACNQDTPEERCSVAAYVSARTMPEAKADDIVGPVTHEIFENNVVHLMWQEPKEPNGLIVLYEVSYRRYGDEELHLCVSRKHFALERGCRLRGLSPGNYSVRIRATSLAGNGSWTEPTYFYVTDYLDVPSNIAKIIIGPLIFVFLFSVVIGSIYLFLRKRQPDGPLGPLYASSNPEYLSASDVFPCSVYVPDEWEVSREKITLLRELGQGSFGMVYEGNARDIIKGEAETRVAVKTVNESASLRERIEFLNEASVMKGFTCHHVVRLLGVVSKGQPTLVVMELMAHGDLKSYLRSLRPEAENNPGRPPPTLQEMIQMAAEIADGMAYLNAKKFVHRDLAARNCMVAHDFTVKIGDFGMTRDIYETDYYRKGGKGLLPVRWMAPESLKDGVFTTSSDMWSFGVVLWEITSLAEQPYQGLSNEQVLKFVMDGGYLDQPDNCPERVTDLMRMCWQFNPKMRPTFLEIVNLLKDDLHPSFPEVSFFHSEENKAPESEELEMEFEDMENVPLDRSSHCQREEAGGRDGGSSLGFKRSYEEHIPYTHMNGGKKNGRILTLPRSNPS

residual activity (MAPK11 (human); compound 0.1 µM): 103%
residual activity (MAPK11 (human); compound 1.0 µM): 80%
residual activity (MAPK11 (human); compound 10.0 µM): 49%
residual activity (INSR (human); compound 0.1 µM): 112%
residual activity (INSR (human); compound 1.0 µM): 101%
residual activity (INSR (human); compound 10.0 µM): 26%
residual activity (PRKAA1 or PRKAA2 (rat); compound 0.1 µM): 5%
residual activity (PRKAA1 or PRKAA2 (rat); compound 1.0 µM): 6%
residual activity (PRKAA1 or PRKAA2 (rat); compound 10.0 µM): 4%
residual activity (MAPK1 (human); compound 0.1 µM): 81%
residual activity (MAPK1 (human); compound 1.0 µM): 41%
residual activity (MAPK1 (human); compound 10.0 µM): 16%
residual activity (PRKCZ (human); compound 0.1 µM): 85%
residual activity (PRKCZ (human); compound 1.0 µM): 66%
residual activity (PRKCZ (human); compound 10.0 µM): 21%
residual activity (GSK3B (human); compound 0.1 µM): 11%
residual activity (GSK3B (human); compound 1.0 µM): 7%
residual activity (GSK3B (human); compound 10.0 µM): 3%
residual activity (PAK7 (human); compound 0.1 µM): 75%
residual activity (PAK7 (human); compound 1.0 µM): 43%
residual activity (PAK7 (human); compound 10.0 µM): 8%
residual activity (BRSK2 (human); compound 0.1 µM): 13%
residual activity (BRSK2 (human); compound 1.0 µM): 10%
residual activity (BRSK2 (human); compound 10.0 µM): 18%
residual activity (MAPK13 (human); compound 0.1 µM): 85%
residual activity (MAPK13 (human); compound 1.0 µM): 62%
residual activity (MAPK13 (human); compound 10.0 µM): 22%
residual activity (CSK (human); compound 0.1 µM): 98%
residual activity (CSK (human); compound 1.0 µM): 69%
residual activity (CSK (human); compound 10.0 µM): 42%
residual activity (PAK6 (human); compound 0.1 µM): 86%
residual activity (PAK6 (human); compound 1.0 µM): 77%
residual activity (PAK6 (human); compound 10.0 µM): 38%
residual activity (SRC (human); compound 0.1 µM): 41%
residual activity (SRC (human); compound 1.0 µM): 7%
residual activity (SRC (human); compound 10.0 µM): 1%
residual activity (EPHB3 (human); compound 0.1 µM): 107%
residual activity (EPHB3 (human); compound 1.0 µM): 90%
residual activity (EPHB3 (human); compound 10.0 µM): 53%
residual activity (RPS6KA5 KD1 KD2 (human); compound 0.1 µM): 98%
residual activity (RPS6KA5 KD1 KD2 (human); compound 1.0 µM): 73%
residual activity (RPS6KA5 KD1 KD2 (human); compound 10.0 µM): 30%
residual activity (IGF1R (human); compound 1.0 µM): 33%
residual activity (IGF1R (human); compound 10.0 µM): 1%
residual activity (ROCK2 (rat); compound 1.0 µM): 37%
residual activity (ROCK2 (rat); compound 10.0 µM): 7%
residual activity (HIPK2 (human); compound 0.1 µM): 33%
residual activity (HIPK2 (human); compound 1.0 µM): 7%
residual activity (HIPK2 (human); compound 10.0 µM): 1%
residual activity (PKN2 (human); compound 0.1 µM): 25%
residual activity (PKN2 (human); compound 1.0 µM): 5%
residual activity (PKN2 (human); compound 10.0 µM): 6%
residual activity (YES1 (human); compound 0.1 µM): 32%
residual activity (YES1 (human); compound 1.0 µM): 8%
residual activity (YES1 (human); compound 10.0 µM): 3%
residual activity (LCK (mouse); compound 0.1 µM): 44%
residual activity (LCK (mouse); compound 1.0 µM): 10%
residual activity (LCK (mouse); compound 10.0 µM): 3%
residual activity ([1]; compound 0.1 µM): 88%
residual activity ([1]; compound 1.0 µM): 77%
residual activity ([1]; compound 10.0 µM): 36%
residual activity (PLK1 (human); compound 0.1 µM): 86%
residual activity (PLK1 (human); compound 1.0 µM): 42%
residual activity (PLK1 (human); compound 10.0 µM): 18%
residual activity (CAMKK2 (human); compound 0.1 µM): 67%
residual activity (CAMKK2 (human); compound 1.0 µM): 41%
residual activity (CAMKK2 (human); compound 10.0 µM): 35%
residual activity (SYK (human); compound 1.0 µM): 40%
residual activity (SYK (human); compound 10.0 µM): 7%
Structure (SMILES): NC(=O)Nc1ccc2c(c1)/C(=C/c1cc(-c3cccnc3)c[nH]1)C(=O)N2

residual activity (MAPK11 (human); compound 0.001 µM): 104%
residual activity (MAPK11 (human); compound 0.01 µM): 100%
residual activity (MAPK11 (human); compound 0.1 µM): 105%
residual activity (INSR (human); compound 0.01 µM): 102%
residual activity (INSR (human); compound 0.1 µM): 110%
residual activity (PRKAA1 or PRKAA2 (rat); compound 0.001 µM): 62%
residual activity (PRKAA1 or PRKAA2 (rat); compound 0.01 µM): 25%
residual activity (PRKAA1 or PRKAA2 (rat); compound 0.1 µM): 7%
residual activity (MAPK1 (human); compound 0.001 µM): 108%
residual activity (MAPK1 (human); compound 0.01 µM): 95%
residual activity (MAPK1 (human); compound 0.1 µM): 79%
residual activity (PRKCZ (human); compound 0.001 µM): 78%
residual activity (PRKCZ (human); compound 0.01 µM): 84%
residual activity (PRKCZ (human); compound 0.1 µM): 83%
residual activity (GSK3B (human); compound 0.01 µM): 92%
residual activity (GSK3B (human); compound 0.1 µM): 49%
residual activity (PAK7 (human); compound 0.001 µM): 84%
residual activity (PAK7 (human); compound 0.1 µM): 78%
residual activity (BRSK2 (human); compound 0.001 µM): 59%
residual activity (BRSK2 (human); compound 0.01 µM): 21%
residual activity (BRSK2 (human); compound 0.1 µM): 12%
residual activity (MAPK13 (human); compound 0.001 µM): 96%
residual activity (MAPK13 (human); compound 0.01 µM): 89%
residual activity (MAPK13 (human); compound 0.1 µM): 86%
residual activity (CSK (human); compound 0.01 µM): 97%
residual activity (CSK (human); compound 0.1 µM): 102%
residual activity (PAK6 (human); compound 0.001 µM): 97%
residual activity (PAK6 (human); compound 0.01 µM): 102%
residual activity (PAK6 (human); compound 0.1 µM): 88%
residual activity (SRC (human); compound 0.001 µM): 84%
residual activity (SRC (human); compound 0.01 µM): 79%
residual activity (SRC (human); compound 0.1 µM): 71%
residual activity (EPHB3 (human); compound 0.001 µM): 114%
residual activity (EPHB3 (human); compound 0.01 µM): 99%
residual activity (EPHB3 (human); compound 0.1 µM): 101%
residual activity (RPS6KA5 KD1 KD2 (human); compound 0.001 µM): 83%
residual activity (RPS6KA5 KD1 KD2 (human); compound 0.01 µM): 87%
residual activity (RPS6KA5 KD1 KD2 (human); compound 0.1 µM): 80%
residual activity (IGF1R (human); compound 0.1 µM): 94%
residual activity (ROCK2 (rat); compound 0.001 µM): 88%
residual activity (ROCK2 (rat); compound 0.01 µM): 90%
residual activity (ROCK2 (rat); compound 0.1 µM): 84%
residual activity (HIPK2 (human); compound 0.001 µM): 89%
residual activity (HIPK2 (human); compound 0.01 µM): 82%
residual activity (HIPK2 (human); compound 0.1 µM): 51%
residual activity (PKN2 (human); compound 0.001 µM): 67%
residual activity (PKN2 (human); compound 0.01 µM): 61%
residual activity (PKN2 (human); compound 0.1 µM): 36%
residual activity (YES1 (human); compound 0.001 µM): 77%
residual activity (YES1 (human); compound 0.01 µM): 60%
residual activity (YES1 (human); compound 0.1 µM): 42%
residual activity (LCK (mouse); compound 0.001 µM): 97%
residual activity (LCK (mouse); compound 0.01 µM): 95%
residual activity (LCK (mouse); compound 0.1 µM): 64%
residual activity ([1]; compound 0.001 µM): 79%
residual activity ([1]; compound 0.01 µM): 82%
residual activity (PLK1 (human); compound 0.001 µM): 86%
residual activity (PLK1 (human); compound 0.01 µM): 82%
residual activity (PLK1 (human); compound 0.1 µM): 72%
residual activity (CAMKK2 (human); compound 0.001 µM): 101%
residual activity (CAMKK2 (human); compound 0.01 µM): 90%
residual activity (CAMKK2 (human); compound 0.1 µM): 60%
residual activity (SYK (human); compound 0.001 µM): 100%
residual activity (SYK (human); compound 0.01 µM): 104%
residual activity (SYK (human); compound 0.1 µM): 97%
Structure (SMILES): C/C(=C1/C(=O)Nc2ccc(NC(N)=O)cc21)c1ccc[nH]1
